Experimental findings from patent publication US8802715B2, “Crystal forms of saxagliptin and processes for preparing same” (AstraZeneca AB, priority 2007, dated 2014) are described below.

Series [1] can be described thus: Solid form stability of crystals stored at ambient conditions. It counts as physicochemical. Conditions: product likely form H2-1. The method, then:
100 mg Saxagliptin mono HCl salt form H2-1 (dihydrate) (prepared employing a procedure similar to that described in Example 5) were added to 2 ml of dry ethanol (dried over molecular sieves). The resulting mixture was heated at 45° C. until all form H^2-1 compound was dissolved, at which time heating was discontinued. Crystallization was initiated when the temperature was cooled to 25° C.±2° C. (close to room temperature). Crystals of saxagliptin HCl salt Pattern P-5 were recovered, which crystals were maintained as a slurry in a sealed container at 25° C.±2° C.

Series [2] is described as follows: Weight gain with relative humidity (hygroscopicity). It counts as physicochemical.

Consider `Cl.N#C[C@@H]1C[C@@H]2C[C@@H]2N1C(=O)[C@@H](N)C12CC3CC(CC(O)(C3)C1)C2` [saxagliptin HCl salt Pattern P-5], for which, in series [1], the “conversion of crystal form on storage” value is given as “underwent significant conversion”.
Turning to `N#C[C@@H]1C[C@@H]2C[C@@H]2N1C(=O)[C@@H](N)C12CC3CC(CC(O)(C3)C1)C2.O` [free base monohydrate (form H−1)], the hygroscopicity entry in series [2] (from weight gain in the range 25-75% RH at 25° C.) is “non-hygroscopic”. For the same compound, the weight gain in series [2] (range 25-75% RH at 25° C.) is given as 0.1%.
